# From patent publication US20230000807A1, “CBD ORAL FORMULATION” (Clear Lake Research, LLC, priority 2020, published 2023)
# How the values were obtained:
# [1] = applied topically; cited from earlier work
# CB2 receptors [2] = biological target: T1, CB2 receptors (Homo sapiens, UniProt P34972); conditions: cited from earlier work
# CB2 receptors [3] = biological target: T1, CB2 receptors; assay: receptor affinity; format: binding; conditions: estimated; times the affinity of CBD
# Experimental: Because CB2 receptors have a low affinity for CBD, a relatively large amount of CBD should be used for efficacy. In a specific implementation, a thin film strip has 100 mg CBD. In alternatives, the oral thin film is as little as 20 mg CBD. Because CBD is a relatively expensive component, the ratio of CBD to other components is more prone to cost/efficacy trade-offs than other components of the formulation. Advantageously, a low does of CBD, of 50 mg or less, acts as a stimulant, making a 20 mg to 50 mg formulation appropriate for formulations that have a goal of reducing the amount of CBD necessary and meeting one of the goals of a concentration improver/mood enhancer, which is stimulation.
# A greater proportion of CBD may be desirable for the purpose of binding to theorized CBD3 receptors or other presently poorly defined receptors with less affinity for CBD. A high dose of CBD, over 100 mg up to less than 250 mg can have a sedative effect that may be effective for certain individuals, though it is unlikely desirable to reach 250 mg. If CBD is replaced with by endocannabinoid with (an estimated) 1,000 times the affinity of CBD, such as 2-Lineoleoyl-glycerol (3443-82-1) or 2-Palmitolyl-glycerol (23470-00-0), an alternative implementation of the oral thin film could have 0.025 mg to 0.1 mg endocannabinoid, but the formulation would likely be much more expensive than CBD.
# T1 sequence (P34972 whole entry): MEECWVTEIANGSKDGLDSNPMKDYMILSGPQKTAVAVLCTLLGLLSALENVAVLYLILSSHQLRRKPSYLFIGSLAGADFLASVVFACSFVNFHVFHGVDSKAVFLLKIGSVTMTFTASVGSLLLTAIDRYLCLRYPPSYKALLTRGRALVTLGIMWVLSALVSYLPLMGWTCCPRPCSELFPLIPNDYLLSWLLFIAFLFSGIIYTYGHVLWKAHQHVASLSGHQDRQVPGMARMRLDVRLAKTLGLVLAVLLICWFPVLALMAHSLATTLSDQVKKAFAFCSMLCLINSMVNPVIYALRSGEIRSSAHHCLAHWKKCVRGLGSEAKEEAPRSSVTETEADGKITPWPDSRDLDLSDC
molecule,measurement,setting,value
"C=C(C)[C@@H]1CCC(C)=C[C@H]1c1c(O)cc(CCCCC)cc1O [CBD, cannabidiol]",time to have a significant pain relief impact,[1],about 30 minutes
same,affinity of CB2 receptors for the substance,CB2 receptors [2],low affinity
2-Lineoleoyl-glycerol,affinity relative to CBD,CB2 receptors [3],"~1,000 times"
2-Palmitolyl-glycerol,affinity relative to CBD,CB2 receptors [3],"~1,000 times"
